{"source": "patent US20080261911A1", "about": "“Uses of diphenyl/diphenylamine carboxylic acids” (priority 2006, published 2008)", "key": {"[1]": {"tested_on": "Sp protein interactions with VEGFR1 promoter sequences", "experiment": "Gel mobility shift of Panc-1 nuclear extracts with VEGFR1 32P and GC/SP 32P", "format": "cell-based", "conditions": "nuclear extracts of Panc-1 cells treated with 50 μM for 48 h", "procedure": "The specific Sp protein bands and antibody supershifted complexes are indicated with arrows.\nVascular endothelial growth factor and VEGFR1 oligonucleotides are synthesized and annealed, and 5 pmol aliquots are 5′-end-labeled using T4 kinase and [y-^32P]ATP. After the reaction sample was incubated 20 min on ice, and antibodies against Sp1, Sp3, and Sp4 proteins are added and incubated another 20 min on ice.\nFIGS. 16A and 16B compare the gel mobility shift and antibody supershift patterns of nuclear extracts from Panc-1 cells bound to the proximal region of the VEGFR1 promoter containing both GC-rich and Egr-1 sites (VEGFR1^32P) or GC-rich sites alone (GC/SP^32P)."}, "[2]": {"tested_on": "VEGFR1 mRNA", "experiment": "VEGFR1 mRNA in Panc-1 cells, semi-quantitative RT-PCR", "format": "cell-based", "conditions": "50 μM, 24 h", "description": "FIGS. 17A-17D show effects of tolfenamic acid on the VEGFR1 promoter and mRNA expression. Transfection with pVEGFR1-A (FIG. 17A), pVEGFR1-B (FIG. 17B), and pVEGFR1-C (FIG. 17C). Panc-1 cells were transfected with pVEGFR1 constructs, treated with DMSO, 50 μM ampiroxicam, or 50 μM tolfenamic acid, and luciferase activity was determined as described in Materials and Methods. […] Results are shown for a single experiment and similar data was obtained in replicate experiments."}, "[3]": {"tested_on": "Bic-1 esophageal cancer cells", "experiment": "Cell proliferation assay, BIC-1 esophageal cancer cells", "format": "cell-based", "parameters": "dose or concentration left out as unconfirmed", "conditions": "tolfenamic acid, DMSO control"}, "[4]": {"tested_on": "Sp1, Sp3 and Sp4 proteins", "experiment": "Western blot of Sp1, Sp3 and Sp4 protein expression in L3.6pl cells", "format": "cell-based, human", "conditions": "50 μM, 48 hr", "procedure": "Cells were treated with 50 μM non-steroidal anti-inflammatory drugs/COX-1/2 inhibitors for 48 hr and whole cell lysates were analyzed by Western blot analysis. […] Protein band intensities were standardized based on β-tubulin protein as a loading control.\nCells are washed once with phosphate buffered saline PBS and collected by scraping in 200 μL of lysis buffer [50 mM HEPES, 0.5M sodium chloride, 1.5 mM magnesium chloride, 1 mM EGTA, 10% (v/v) glycerol, 1% Triton X-100, 5 μL/ml of Protease Inhibitor Cocktail (Sigma)]. The lysates from the cells are incubated on ice for 1 hr with intermittent vortexing followed by centrifugation at 40,000 g for 10 min at 4° C. Equal amounts of protein (60 μg) from each treatment group are diluted with loading buffer, boiled and loaded onto 10 and 12.5% SDS-polyacrylamide gel. […] Samples are electrophoresed, transferred to membranes, and proteins detected by incubation with polyclonal primary antibodies Sp1, Sp3, Sp4, HDAC, VEGF (a-20), c-Met, surviving, VEGF, cleaved PARP, and β-tubulin (H-235) followed by blotting with appropriate horseradish peroxidase-conjugated secondary antibody as previously described (Abdelrahim et al, 2004). After autoradiography, band intensities are determined by a scanning laser densitometer (Sharp Electronics Corporation, Mahwah, N.J.) using ZERO-D SCANALYTICS software (Scanalytics Corporation, Billerica, Mass.)."}, "[5]": {"tested_on": "Sp protein binding to GC-rich VEGF promoter oligonucleotide", "experiment": "Gel mobility shift of nuclear extracts from L3.6pl cells with VEGF32P", "format": "cell-based, human", "conditions": "nuclear extracts of L3.6pl cells treated with 50 μM for 48 hr", "procedure": "Vascular endothelial growth factor and VEGFR1 oligonucleotides are synthesized and annealed, and 5 pmol aliquots are 5′-end-labeled using T4 kinase and [y-^32P]ATP. After the reaction sample was incubated 20 min on ice, and antibodies against Sp1, Sp3, and Sp4 proteins are added and incubated another 20 min on ice. Protein-DNA complexes are resolved by 5% polyacrylamide gel electrophoresis as previously described (Abdelrahim et al, 2004; Abdelrahim et al, 2005, Abdelrahim et al, submitted 2005).\nPanc1 or L3.6pl cells were treated with DMSO, 50 μM tolfenamic acid or 50 μM ampiroxicam for 48 hr. Nuclear extracts from these cells were isolated, incubated with VEGF^32P and analyzed in gel mobility shift assays.\nThe radiolabeled oligonucleotide contained a GC-rich region (−66 to −47) from the VEGF promoter that binds Sp proteins."}, "[6]": {"tested_on": "SEG-1 esophageal cancer cells", "experiment": "Western blot of Sp and Sp-dependent proteins in SEG-1 esophageal cancer cells", "format": "cell-based", "conditions": "SEG-1 cells, 25-100 μM", "description": "(§1) Cells are washed once with phosphate buffered saline PBS and collected by scraping in 200 μL of lysis buffer [50 mM HEPES, 0.5M sodium chloride, 1.5 mM magnesium chloride, 1 mM EGTA, 10% (v/v) glycerol, 1% Triton X-100, 5 μL/ml of Protease Inhibitor Cocktail (Sigma)]. The lysates from the cells are incubated on ice for 1 hr with intermittent vortexing followed by centrifugation at 40,000 g for 10 min at 4° C. Equal amounts of protein (60 μg) from each treatment group are diluted with loading buffer, boiled and loaded onto 10 and 12.5% SDS-polyacrylamide gel. For vascular endothelial growth factor immunoblots, 100 μg of protein are used. Samples are electrophoresed, transferred to membranes, and proteins detected by incubation with polyclonal primary antibodies Sp1, Sp3, Sp4, HDAC, VEGF (a-20), c-Met, surviving, VEGF, cleaved PARP, and β-tubulin (H-235) followed by blotting with appropriate horseradish peroxidase-conjugated secondary antibody as previously described (Abdelrahim et al, 2004). After autoradiography, band intensities are determined by a scanning laser densitometer (Sharp Electronics Corporation, Mahwah, N.J.) using ZERO-D SCANALYTICS software (Scanalytics Corporation, Billerica, Mass.)."}, "[7]": {"tested_on": "L3.6pl cells", "experiment": "Cell proliferation assay, L3.6pl cells", "format": "cell-based, human", "description": "(§2) FIGS. 7A-7D compares effects of tolfenamic acid and ampiroxicam on pancreatic cancer cell proliferation. […] Panc1, Panc28 and L3.6pl cells are seeded in DMEM/F12 media with 5% FBS and treated the next day with either vehicle (DMSO) or with the indicated compounds' concentrations. Cells are counted at the indicated times using a Z1™ COULTER COUNTER® cell counter. Each experiment is carried out in triplicate and results expressed as means ±SD for each determination."}, "[8]": {"tested_on": "VEGFR1 mRNA", "experiment": "VEGFR1 mRNA in L3.6pl cells, semi-quantitative RT-PCR", "format": "cell-based, human", "conditions": "50 μM, 24 h"}, "[9]": {"tested_on": "Panc-28 cells", "experiment": "Cell proliferation assay, Panc-28 cells", "format": "cell-based", "description": "as §2"}, "[10]": {"tested_on": "SEG-1 esophageal cancer cells", "experiment": "Cell proliferation assay, SEG-1 esophageal cancer cells", "format": "cell-based", "parameters": "dose or concentration left out as unconfirmed", "conditions": "DMSO control"}, "[11]": {"tested_on": "VEGF promoter constructs pVEGF1 and pVEGF2", "experiment": "VEGF promoter (pVEGF1/pVEGF2) luciferase transactivation in L3.6pl cells", "format": "cell-based, human", "conditions": "50 μM", "procedure": "Cells were transfected with pVEGF1 or pVEGF2 treated with DMSO, 50 μM ampiroxicam, tolfenamic acid, or diclofenac sodium, and luciferase activity determined. […] Panc-1 cells were transfected with pVEGF2, treated with 20, 40, 60 or 80 μM ampiroxicam or tolfenamic acid, and luciferase determined. […] Cells are cultured in 6-well plates in 2 ml of DME/F12 medium supplemented with 5% fetal bovine serum."}, "[12]": {"tested_on": "Bic-1 esophageal cancer cells", "experiment": "Western blot of Sp and Sp-dependent proteins in BIC-1 esophageal cancer cells", "format": "cell-based", "conditions": "Bic-1 cells, 25-100 μM", "description": "as §1"}}}
{"smiles": "Cc1c(Cl)cccc1Nc1ccccc1C(=O)O", "note": "[tolfenamic acid]", "values": [{"measurement": "Sp1, Sp3, and Sp4-DNA retarded band intensity with VEGFR1 32P and GC/SP 32P", "setting": "[1]", "result": "retarded band intensity was markedly decreased"}, {"measurement": "VEGFR1 mRNA levels", "setting": "[2]", "result": "decreased VEGFR1 mRNA levels"}, {"measurement": "growth of BIC-1 esophageal cancer cells", "setting": "[3]", "result": "inhibits growth"}, {"measurement": "decrease of Sp1, Sp3 and Sp4 proteins", "setting": "[4]", "result": "greater than 65%"}, {"measurement": "Sp3 and Sp1/Sp4 retarded bands with VEGF32P", "setting": "[5]", "result": "retarded bands were decreased"}, {"measurement": "apoptosis as shown by PARP cleavage", "setting": "[6]", "result": "induced apoptosis"}, {"measurement": "expression of Sp-dependent proteins VEGF, survivin, and c-Met", "setting": "[6]", "result": "decreased expression of Sp-dependent proteins vascular endothelial growth factor (VEGF), survivin, and c-Met"}, {"measurement": "protein expression of Sp1, Sp3, and Sp4", "setting": "[6]", "result": "decreased protein expression of Sp1, Sp3, and Sp4"}, {"measurement": "potency as inhibitor of pancreatic cell growth relative to ampiroxicam", "setting": "[7]", "result": "more potent as an inhibitor of pancreatic cell growth than ampiroxicam"}, {"measurement": "cell growth", "setting": "[7]; 25-100 μM, 6 days", "result": "significantly (p<0.05) inhibited cell growth"}, {"measurement": "VEGFR1 mRNA levels", "setting": "[8]", "result": "decreased VEGFR1 mRNA levels"}, {"measurement": "potency as inhibitor of pancreatic cell growth relative to ampiroxicam", "setting": "[9]", "result": "more potent as an inhibitor of pancreatic cell growth than ampiroxicam"}, {"measurement": "cell growth", "setting": "[9]; 25-100 μM, 6 days", "result": "significantly (p<0.05) inhibited cell growth"}, {"measurement": "growth of SEG-1 esophageal cancer cells", "setting": "[10]", "result": "inhibits growth"}, {"measurement": "luciferase activity, pVEGF1 and pVEGF2 constructs", "setting": "[11]", "result": "results similar to those observed in Panc-1 cells"}, {"measurement": "apoptosis as shown by PARP cleavage", "setting": "[12]", "result": "induced apoptosis"}, {"measurement": "expression of Sp-dependent proteins VEGF, survivin, and c-Met", "setting": "[12]", "result": "decreased expression of Sp-dependent proteins vascular endothelial growth factor (VEGF), survivin, and c-Met"}, {"measurement": "protein expression of Sp1, Sp3, and Sp4", "setting": "[12]", "result": "decreased protein expression of Sp1, Sp3, and Sp4"}]}
